Test [1] has as its system FOP patient derived cells. Description: Differentiation to chondrocytes (Alcian blue, sulfated glycosaminoglycan assay) of FOP patient derived cells. The class given is cell-based, human. Particulars: for cartilage induction (sulfated glycosaminoglycan assay): 100 ng/mL activin A, vs untreated group. Here is the method: (§1) Mesenchymal stem cell-like cells from a patient iPS cell line and a gene-corrected iPS cell clone were each prepared by the same method as Example 1. The mesenchymal stem cell-like cells were cultured for 6 days under the medium conditions used in the method of Umeda et al. (Sci. Rep., 2012, 2, 455), for differentiation to chondrocytes. During differentiation, 100 ng/mL of human activin A, 100 ng/mL of human BMP-7 or 1 ng/mL of human TGF-β3 (product of R&D Systems, Inc., trade name: Recombinant Human TGF-beta 3) was added and the effect of each factor on differentiation to chondrocytes was examined. The extent of differentiation to chondrocytes was measured with Alcian blue dye and a sulfated glycosaminoglycan assay kit (product of Biocolor, Ltd., trade name: Blyscan Glycosaminoglycan Assay Kit). In FIG. 4, the bar graph indicates the mean values for each treated group, and the error bars represent S.D.

The target of a further test is T1, wild type ACVR1 (Homo sapiens, UniProt Q04771).
T1 construct: an iPS cell line with the ACVR1 gene mutation repaired to the normal type (wild type) by gene repair by a BAC knockin vector; endogenous in cells; host or cells: mesenchymal stem cell-like cells differentiated from the gene-corrected iPS cell clone
T1 sequence (Q04771 21-509): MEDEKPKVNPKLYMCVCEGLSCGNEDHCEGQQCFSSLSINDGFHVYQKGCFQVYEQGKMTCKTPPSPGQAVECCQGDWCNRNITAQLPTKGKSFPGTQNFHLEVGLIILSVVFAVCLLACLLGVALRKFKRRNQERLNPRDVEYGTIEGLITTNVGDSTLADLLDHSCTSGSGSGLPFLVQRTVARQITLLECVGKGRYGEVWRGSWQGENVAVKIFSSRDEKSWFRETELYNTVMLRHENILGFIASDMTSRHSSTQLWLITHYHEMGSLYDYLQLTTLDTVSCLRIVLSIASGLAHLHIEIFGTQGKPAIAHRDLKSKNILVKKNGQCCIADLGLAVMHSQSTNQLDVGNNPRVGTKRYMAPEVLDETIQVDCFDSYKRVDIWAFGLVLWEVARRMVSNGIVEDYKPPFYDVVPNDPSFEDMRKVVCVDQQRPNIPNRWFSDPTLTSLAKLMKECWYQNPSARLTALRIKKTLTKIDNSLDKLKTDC
Description: ID1 gene promoter luciferase reporter in U2OS cells with transfer of wild type ACVR1. Format: cell-based. Particulars: 10 ng/mL, 20 hours. (A reporter such as luciferase makes a cellular process visible.)

The test system of another test is mutant ACVR1. The experiment in a line: ID1 gene promoter luciferase reporter in U2OS cells with transfer of mutant ACVR1. Format: cell-based, human. Particulars: U2OS cells with transfer of each mutant ACVR1 of Table 1; 10 ng/mL, 20 hours. Here is the method:
A Firefly luciferase reporter plasmid having the promoter region of the ID1 gene, as a typical downstream gene of BMP (Genes Cells. 2002 September; 7(9):949-60), was mixed with a plasmid including different mutant ACVR1 genes reported to elicit FOP, and FuGene HD was used on U2OS cells for transfection. At 1 hour after transfection, human activin A (final concentration: 10 ng/mL) was added and the transfected cells were cultured for 20 hours. Next, the luciferase activity was measured according to the protocol provided with a Bright-Glo Luciferase Assay System (product of Promega Corp.). In FIG. 8, each sample name is listed according to Table 1 above, based on the amino acid mutation of ACVR1.

Test [2] deals with gene-corrected clone derived cells. The experiment in a line: Differentiation to chondrocytes (sulfated glycosaminoglycan assay) of gene-corrected clone derived cells. Particulars: 100 ng/mL BMP-7 or 1 ng/mL TGF-β3, 6 days, vs untreated group. The class given is cell-based, human. As for the experimental part: as §1
The mark [3] stands for this setting: FOP patient derived cells, 100 ng/mL BMP-7 or 1 ng/mL TGF-β3, 6 days.

The results in this text go back to patent publication US10260068B2, “Prophylactic agent and therapeutic agent for fibrodysplasia ossificans progressiva” (Sumitomo Dainippon Pharma Co., Ltd., priority 2014, dated 2019).

On to “human activin A: Recombinant Human/Mouse/Rat Activin A (R&D Systems); homodimer of inhibin βA chains”, for which, in test [1] (100 ng/mL, 6 days), the “sulfated glycosaminoglycan production in FOP patient derived cells compared to gene-corrected cells” value is 4 fold. The “cartilage induction (sulfated glycosaminoglycan assay)” value in test [1] (setting [3]) was “very notably enhances”. Also, in test [1] (FOP patient derived cells, 100 ng/mL, 6 days), the “differentiation to chondrocytes (Alcian blue staining)” value is given as “notably enhances”. The “transcription activity via ACVR1 (ID1 gene promoter luciferase)” value with wild type ACVR1 is reported as “not observed”; in the test on mutant ACVR1, “increased”.

B1: BMP-7: Recombinant Human BMP-7 (R&D Systems); cytokine of the BMP family (protein)
chain: STGSKQRSQNRSKTPKNQEALRMANVAENSSSDQRQACKKHELYVSFRDLGWQDWIIAPEGYAAYYCEGECAFPLNSYMNATNHAIVQTLVHFINPETVPKPCCAPTQLNAISVLYFDDSSNVILKKYRNMVVRACGCH
Take B1: the “cartilage induction effect compared to the effect exhibited by activin A on FOP patient derived cells” value in test [1] (100 ng/mL BMP-7 or 1 ng/mL TGF-β3, 6 days) is given as “weaker”. For the same molecule, the “cartilage induction (sulfated glycosaminoglycan assay)” value in test [1] (setting [3]) and in test [2] was “significantly enhanced” throughout.
